The values below come from US10590462B2, “Probes and assays for measuring E3 ligase activity” (NORTHWESTERN UNIVERSITY, priority 2014, dated 2020).

The experiment has as its system Rsp5 HECT domain. Put plainly: UbiFlu real-time fluorescence polarization kinetics with Rsp5 HECT domain. The format is biochemical, S. cerevisiae. As to conditions: in the presence of 8× SFlu. A general note: Polarisation of emitted light reports the rotation of a fluorescent probe.

Molecules are shown by their SMILES.

Take `O=C1OC2(c3ccc(O)cc3Oc3cc(O)ccc32)c2ccc(NC(=S)NCCS)cc21` [SFlu]: the “inhibition of UbiFlu consumption” value is “no inhibition”.
